Experimental data taken from patent US10576144B2, “Amino acid and peptide conjugates and conjugation process” (AUCKLAND UNISERVICES LIMITED, priority 2014, dated 2020).
Residues, ends and D or L forms follow the SMILES beside them. *: point of attachment. Ethyl(2-palmitoyloxy) = CCCCCCCCCCCCCCCC(=O)OCC*; Palmitoyl = CCCCCCCCCCCCCCCC(=O)*

How the values were obtained:
CD4+ T cell clone 1D6 = assay: CD4+ T cell clone activation assay, NY-ESO-1 118-143 constructs, autologous LCL as APC; format: cell-based, human; conditions: LCL pulsed with construct; 147 tested +/−P3C; 116 and 115 titratable (FIG. 13)
Method: Epstein-Barr Virus (“EBV”)-producing B95-8 MM cells were grown in RPMI 1640 supplemented with Glutamax, Penicillin/Streptomycin and 10% v/v fetal bovine serum (“RF10”, all reagents from Invitrogen) in T75 flasks (BD Biosciences). EBV-containing medium was collected and centrifuged to pellet non-adherent cells, and the EBV-containing supernatant then filter-sterilised (0.22 μm). 10×10^6 donor Peripheral Blood Mononuclear Cells (“PBMC”) were suspended in 1.5 ml RF10 in aT25 flask (BD Biosciences). […] Flasks were monitored for outgrowth of B cell LCL, typically over 4-6 weeks, with transfer to a T75 flask (BD Biosciences) when required. […]
Data acquisition was performed using a BD FACSAria II with FACSDiva software, and data analysis was performed using FlowJo software (Treestar). Data were presented as the median fluorescence intensity (MFI)+SD of CD25 and CD134 expression on live clonal cells. […]

CD8+ T cell clone 1C11 = assay: CD8+ T cell clone activation assay, NY-ESO-1 118-143 constructs, autologous LCL as APC; format: cell-based, human
Method: Human CD4+ and CD8+ T cell clones were maintained at a concentration of 1-3×10^6/ml in RPMI 1640 supplemented with Glutamax, Penicillin/Streptomycin and 5% v/v human serum (“RS5”, all reagents from Life Technologie). Media was refreshed 50% v/v twice weekly. RS5 for CD4+ T cell clones was supplemented with IL-7 and IL-21, and RS5 for CD8+ T cell clones was supplemented with IL-7+IL-15 (all cytokines from PeproTech, used at a final concentration of 5 ng/ml).
Epstein-Barr Virus (“EBV”)-producing B95-8 MM cells were grown in RPMI 1640 supplemented with Glutamax, Penicillin/Streptomycin and 10% v/v fetal bovine serum (“RF10”, all reagents from Invitrogen) in T75 flasks (BD Biosciences). EBV-containing medium was collected and centrifuged to pellet non-adherent cells, and the EBV-containing supernatant then filter-sterilised (0.22 μm). 10×10^6 donor Peripheral Blood Mononuclear Cells (“PBMC”) were suspended in 1.5 ml RF10 in aT25 flask (BD Biosciences). 2.5 ml B95-8 cell culture supernatant was added and cells incubated for 2 hours. 1 ml fresh RF10 containing 5% v/v Phytohemaglutanin (“PHA”, Gibco) was then added (1% v/v final concentration). Flasks were monitored for outgrowth of B cell LCL, typically over 4-6 weeks, with transfer to a T75 flask (BD Biosciences) when required. LCL lines were cryopreserved and working stocks maintained in RF10 at 0.5-1.5×10^6/ml.
Donor LCL or MoDC (also referred to herein as antigen presenting cells or “APC”) were incubated for 16 h in RF10+ peptide/construct at desired concentration. In samples where Pam3Cys (“P3C”) and peptide moieties were both present but unconjugated, LCL were pre-treated with P3C for 30 minutes, and media then refreshed with RF10 containing both P3C and peptide. Untreated APC were incubated in RF10 only. APC/construct incubation was performed in 96 well plates (U-bottom, BD Biosciences) or in 48wp (flat bottom, BD Biosciences) depending of the nature of the assay and the numbers of APC required per treatment. Following incubation, APC were washed with RPMI 1640 4 times, to remove unbound construct/P3C. […]

human monocytes = assay: Activation of human monocytes in whole blood (CD80 up-regulation, flow cytometry); format: cell-based
Method: 100 μl of heparinised whole blood (WB) was incubated with 100 nM, 1 μM and 10 μM of each compound, in duplicate, and incubated overnight at 37° C. in a 5% CO2 humidified incubator. […] EMC Microcollections) was used as a positive control. To detect activation of monocytes, WB samples were stained with anti-CD14-FITC, anti-HLA-DR-Alexa700, anti-CD80-PE-Cy7, anti-CD40-PE, anti-CD86-APC, anti-CD16-APC-Cy7 (all from Biolegend) for 20 mins at RT, protected from light. Following incubation, 2 ml of BD FACS lyse (BD Biosciences) was added, incubated for 15 mins at RT, then washed twice with ice cold wash buffer (PBS, 1% Human Serum). Data acquisition was performed on a BD FACS Aria II (Becton Dickinson) and analysed using FlowJo software version 7.6.5 (TreeStar). CD80 receptor expression on monocytes was detected by gating on CD14+ HLADR+ cells.

In the case of “147 (VPGVLLKEFTVSGNILTIRLTAADHR; C-terminal acid) [compound 147]”, the “response of clone 1D6” value (CD4+ T cell clone 1D6) is reported as “does not respond”, the T cell activation (CD8+ T cell clone 1C11; 100 nM) is reported as “No or negligible T cell activation” and the T cell activation (CD8+ T cell clone 1C11; 1 μM, with exogenous P3C) is reported as 75%. It also gave a T cell activation (CD8+ T cell clone 1C11; 1 μM, without exogenous P3C) of 60%.

`CCCCCCCCCCCCCCCC(=O)SC[C@H](N)C(=O)N[C@@H](CO)C(=O)N[C@@H](CCCCN)C(=O)N[C@@H](CCCCN)C(=O)N[C@@H](CCCCN)C(=O)N[C@@H](CCCCN)C(N)=O` [compound 20] (H-C(Palmitoyl)SKKKK-NH2) was tested, and the “potency of CD80 up-regulation compared to 22 and 26” value (human monocytes; in three donors) was “lower potency than 22 and 26”.

With `CCCCCCCCCCCCCCCC(=O)OCCSC[C@H](NC(C)=O)C(=O)N[C@@H](CO)C(=O)N[C@@H](CCCCN)C(=O)N[C@@H](CCCCN)C(=O)N[C@@H](CCCCN)C(=O)N[C@@H](CCCCN)C(N)=O` [compound 22] (Ac-C(Ethyl(2-palmitoyloxy))SKKKK-NH2) the “potency of CD80 up-regulation compared to Pam3CSK4” value (human monocytes; 10 μM dose, in most donors) was “equivalent potency to Pam3CSK4” and the “up-regulation of expression of CD80 on monocytes” value (human monocytes; all doses tested (100 nM, 1 μM, 10 μM), whole blood of five donors, overnight) was “strongly upregulated expression of CD80”.
